Source: ChEMBL document CHEMBL3621069 (Bioorg Med Chem Lett, 2015)
In brackets after ≈: the same amount, converted by molar mass.

Legend:
[1] = target: T1, Tyrosine-protein kinase SYK (Homo sapiens, UniProt P43405); assay: Inhibition of purified full-length human SYK pre-incubated for 30 mins at room temperature before Ulight-TK peptide substrate addition and measured 1 hr after substrate addition by cell free kinase assay
[2] = target: T2, Tyrosine-protein kinase JAK3 (Homo sapiens, UniProt P52333); assay: Inhibition of JAK3 (unknown origin) pre-incubated for 30 mins at room temperature before substrate addition and measured 1 hr after substrate addition by cell free kinase assay
T2 sequence (P52333 whole entry): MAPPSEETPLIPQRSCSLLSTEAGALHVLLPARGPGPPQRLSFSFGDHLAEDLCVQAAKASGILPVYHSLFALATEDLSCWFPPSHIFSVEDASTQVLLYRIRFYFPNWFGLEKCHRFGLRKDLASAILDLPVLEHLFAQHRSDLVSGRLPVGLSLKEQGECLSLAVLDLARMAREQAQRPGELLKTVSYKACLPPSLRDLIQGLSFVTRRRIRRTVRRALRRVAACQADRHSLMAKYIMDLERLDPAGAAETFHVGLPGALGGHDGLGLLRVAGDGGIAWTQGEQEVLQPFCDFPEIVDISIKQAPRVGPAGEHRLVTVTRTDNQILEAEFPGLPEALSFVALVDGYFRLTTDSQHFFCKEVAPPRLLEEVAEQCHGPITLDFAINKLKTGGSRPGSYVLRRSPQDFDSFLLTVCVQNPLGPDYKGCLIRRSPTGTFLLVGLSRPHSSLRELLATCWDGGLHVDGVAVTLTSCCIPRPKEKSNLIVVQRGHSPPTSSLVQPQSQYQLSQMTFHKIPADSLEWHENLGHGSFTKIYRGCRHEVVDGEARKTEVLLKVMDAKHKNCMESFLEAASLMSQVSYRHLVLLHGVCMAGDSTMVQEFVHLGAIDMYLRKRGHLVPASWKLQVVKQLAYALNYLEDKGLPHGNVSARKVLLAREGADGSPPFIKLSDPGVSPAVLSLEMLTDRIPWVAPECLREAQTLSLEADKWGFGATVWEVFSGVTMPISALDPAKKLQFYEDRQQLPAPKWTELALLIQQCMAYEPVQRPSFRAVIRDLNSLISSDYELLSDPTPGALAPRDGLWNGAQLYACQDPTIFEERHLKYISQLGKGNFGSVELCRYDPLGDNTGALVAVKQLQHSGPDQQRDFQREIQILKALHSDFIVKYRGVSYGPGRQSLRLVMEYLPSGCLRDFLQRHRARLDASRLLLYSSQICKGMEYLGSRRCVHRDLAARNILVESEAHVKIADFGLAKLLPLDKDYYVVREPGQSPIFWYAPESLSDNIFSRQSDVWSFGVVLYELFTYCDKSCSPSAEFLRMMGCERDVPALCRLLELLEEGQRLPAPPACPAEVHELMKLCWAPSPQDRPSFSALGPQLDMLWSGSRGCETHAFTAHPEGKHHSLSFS

[3] = Apparent permeability from apical to basolateral side in human Caco2 cells; format: ADME, cell-based; conditions: Caco-2
[4] = Inhibition of CYP450 (unknown origin); format: ADME, Homo sapiens
[5] = Apparent permeability from basolateral to apical side in human Caco2 cells; format: ADME, cell-based; conditions: Caco-2
[6] = target: Proto-oncogene tyrosine-protein kinase receptor Ret (Homo sapiens, UniProt P07949); assay: Inhibition of human RET pre-incubated for 30 mins at room temperature before substrate addition and measured 1 hr after substrate addition by cell free kinase assay
[7] = Stability in human liver microsomes; format: ADME; conditions: read-out: Stability
Plasma = assay: Unbound fraction in human plasma; format: ADME, cell-free
[8] = target: T3, Tyrosine-protein kinase ZAP-70 (Homo sapiens, UniProt P43403); assay: Inhibition of purified full-length human ZAP70 pre-incubated for 30 mins at room temperature before UlighTM-PolyGT peptide substrate addition and measured 1 hr after substrate addition by cell free kinase assay
T3 sequence (P43403 whole entry): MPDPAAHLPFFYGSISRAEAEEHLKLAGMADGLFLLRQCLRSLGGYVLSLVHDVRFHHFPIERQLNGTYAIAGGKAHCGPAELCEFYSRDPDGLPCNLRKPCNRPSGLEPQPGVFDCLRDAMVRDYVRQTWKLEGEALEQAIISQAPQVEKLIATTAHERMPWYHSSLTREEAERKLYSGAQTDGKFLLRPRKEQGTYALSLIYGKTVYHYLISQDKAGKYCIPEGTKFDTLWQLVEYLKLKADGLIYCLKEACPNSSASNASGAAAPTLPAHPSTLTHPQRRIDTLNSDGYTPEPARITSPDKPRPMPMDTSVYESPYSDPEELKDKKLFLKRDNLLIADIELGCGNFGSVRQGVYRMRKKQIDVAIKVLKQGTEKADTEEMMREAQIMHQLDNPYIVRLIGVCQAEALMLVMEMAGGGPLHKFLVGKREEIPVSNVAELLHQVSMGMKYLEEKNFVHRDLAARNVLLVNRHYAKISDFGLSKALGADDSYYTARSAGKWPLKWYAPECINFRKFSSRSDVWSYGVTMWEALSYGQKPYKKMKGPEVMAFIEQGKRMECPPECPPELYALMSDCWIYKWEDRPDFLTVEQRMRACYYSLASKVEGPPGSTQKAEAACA

[9] = AUClast in Sprague-Dawley rat at 10 mg/kg; format: ADME, organism-based; design: dose 10 mg/kg, time 0 - last; conditions: in vivo
[10] = Terminal half life in Sprague-Dawley rat at 10 mg/kg, po; format: ADME, organism-based; conditions: in vivo, read-out: beta t1/2 (converted)
Cytochrome P450 3A4 = Cytochrome P450 3A4 (Homo sapiens, UniProt P08684); assay: Inhibition of CYP3A4 (unknown origin); format: ADME
[11] = Clearance in Sprague-Dawley rat at 10 mg/kg, po; format: ADME, organism-based; conditions: in vivo
[12] = Apparent permeability in human Caco2 cells; format: ADME, cell-based; conditions: Caco-2
[13] = target: T1, Tyrosine-protein kinase SYK; assay: Inhibition of SYK-mediated TNFalpha production in human IgG-stimulated human THP1 cells incubated for 18 hrs by ELISA method; format: cell-based, THP-1
Rattus norvegicus = assay: Volume of distribution at steady state in Sprague-Dawley rat at 10 mg/kg, po; format: ADME, organism-based; conditions: in vivo
[14] = Kinetic solubility of the compound; format: physicochemical; conditions: read-out: Kinetic_solubility
[15] = Oral bioavailability in Sprague-Dawley rat at 10 mg/kg; format: ADME, organism-based; conditions: in vivo

Cytochrome P450 3A4, sequence (P08684 whole entry): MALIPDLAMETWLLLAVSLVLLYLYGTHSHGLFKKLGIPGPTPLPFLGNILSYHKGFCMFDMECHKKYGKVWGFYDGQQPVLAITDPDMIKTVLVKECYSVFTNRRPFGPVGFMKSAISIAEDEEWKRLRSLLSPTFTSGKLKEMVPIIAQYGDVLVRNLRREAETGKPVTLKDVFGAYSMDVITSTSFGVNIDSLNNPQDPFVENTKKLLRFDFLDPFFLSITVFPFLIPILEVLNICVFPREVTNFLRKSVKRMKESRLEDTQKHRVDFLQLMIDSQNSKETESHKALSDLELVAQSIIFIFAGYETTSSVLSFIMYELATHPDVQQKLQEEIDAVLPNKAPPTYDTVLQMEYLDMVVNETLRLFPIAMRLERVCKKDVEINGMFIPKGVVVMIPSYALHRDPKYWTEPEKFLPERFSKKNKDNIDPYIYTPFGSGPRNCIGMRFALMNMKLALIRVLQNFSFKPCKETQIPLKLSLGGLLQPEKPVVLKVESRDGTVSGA
Proto-oncogene tyrosine-protein kinase receptor Ret, sequence (P07949 whole entry): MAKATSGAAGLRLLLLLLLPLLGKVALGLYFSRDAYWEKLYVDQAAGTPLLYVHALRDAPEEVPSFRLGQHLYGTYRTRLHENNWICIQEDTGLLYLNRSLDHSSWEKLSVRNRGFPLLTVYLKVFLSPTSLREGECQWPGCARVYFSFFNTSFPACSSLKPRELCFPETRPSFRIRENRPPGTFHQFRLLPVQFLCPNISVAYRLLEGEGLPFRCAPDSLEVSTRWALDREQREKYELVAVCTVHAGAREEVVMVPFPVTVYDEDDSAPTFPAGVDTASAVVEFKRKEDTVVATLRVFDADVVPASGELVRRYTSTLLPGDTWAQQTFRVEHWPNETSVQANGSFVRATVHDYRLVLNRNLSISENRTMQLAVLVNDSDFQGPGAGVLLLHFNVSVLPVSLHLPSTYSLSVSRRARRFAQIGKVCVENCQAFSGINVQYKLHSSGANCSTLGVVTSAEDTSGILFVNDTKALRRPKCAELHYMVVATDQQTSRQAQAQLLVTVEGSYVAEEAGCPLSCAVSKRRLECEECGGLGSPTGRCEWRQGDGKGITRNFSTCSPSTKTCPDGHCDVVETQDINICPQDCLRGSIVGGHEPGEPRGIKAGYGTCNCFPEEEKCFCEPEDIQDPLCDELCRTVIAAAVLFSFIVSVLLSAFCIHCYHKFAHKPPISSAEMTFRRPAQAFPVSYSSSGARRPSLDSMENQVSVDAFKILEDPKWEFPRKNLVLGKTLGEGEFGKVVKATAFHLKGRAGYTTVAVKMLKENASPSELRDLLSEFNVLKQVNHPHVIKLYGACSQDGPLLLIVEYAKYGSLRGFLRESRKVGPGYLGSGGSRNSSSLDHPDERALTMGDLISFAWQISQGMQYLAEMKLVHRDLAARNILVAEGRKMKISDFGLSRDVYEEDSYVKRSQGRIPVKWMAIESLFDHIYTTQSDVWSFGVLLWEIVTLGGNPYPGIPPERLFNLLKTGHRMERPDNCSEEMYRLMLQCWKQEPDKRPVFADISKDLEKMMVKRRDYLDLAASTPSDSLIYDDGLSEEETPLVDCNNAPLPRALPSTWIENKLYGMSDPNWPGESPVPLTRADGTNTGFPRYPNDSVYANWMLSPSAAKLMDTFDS

Row | SMILES | IC50 [1] [nM] | other results
1 | Cc1cc(C)cc(Nc2nccc(-n3cc(CN4CC(O)C4)c(C4CC4)c3)n2)c1 | 1.9 | –
2 | COc1cc(Nc2nccc(-n3cc(C)c(CN4CC(O)C4)c3)n2)cc(OC)c1OCC(=O)N1CCCC1 | 61.4 | –
3 | Cc1cc(C)cc(Nc2nccc(-n3cc(C)c(CN(C)C)c3)n2)c1 | 6.2 | –
4 | Cc1nn(-c2ccnc(Nc3ccc4c(c3)c(Cl)c(C)n4C)n2)cc1CN1CC[C@@H](O)C1 | – | IC50 [2]: 478 nM; Papp A→B [3]: 6.2 ×10⁻⁶ cm/s; IC50 [4]: > 10000 nM; Papp B→A [5]: 7.3 ×10⁻⁶ cm/s; IC50 [6]: 9590 nM; half-life [7]: > 1 h; Fu (Plasma): < 0.4%; IC50 [8]: 73400 nM
5 | Cc1nn(-c2nc(Nc3ccc4c(cnn4C)c3)ncc2F)cc1CN1CC(O)C1 | 326 | –
6 | Cc1cn(-c2ccnc(Nc3cc(C)c(OCC(=O)N4CCCC4)c(C)c3)n2)cc1CN1CC[C@@H](O)C1 | 14.4 | –
7 | Cc1cn(-c2ccnc(Nc3cc(C)c(OS(C)(=O)=O)c(C)c3)n2)cc1CN1CC(O)C1 | 6.3 | –
8 | CCn1ccc2cc(Nc3nccc(-n4cc(CN5CC(O)C5)c(C)n4)n3)ccc21 | 22.8 | –
9 | Cc1cc(C)cc(Nc2nccc(-n3cc(C)c(CN4CC[C@@H](N)C4)c3)n2)c1 | 13.2 | –
10 | Cc1cc(C)cc(Nc2nccc(-n3cc(CN4CC[C@@H](O)C4)c(C4CC4)c3)n2)c1 | 3.7 | –
11 | Cc1nn(-c2ccnc(Nc3ccc4c(ccn4C)c3)n2)cc1CN1CC(O)C1 | 36.6 | –
12 | COc1cc(Nc2nccc(-n3cc(C)c(CN(C)C)c3)n2)cc(OC)c1OC | 71.8 | –
13 | Cc1nn(-c2ccnc(Nc3ccccc3)n2)cc1CN1CC[C@@H](O)C1 | 871 | –
14 | Cc1cn(-c2ccnc(Nc3cc(C)c(OS(C)(=O)=O)c(C)c3)n2)cc1CN1CC[C@@H](O)C1 | 7.9 | –
15 | Cc1cc(C)cc(Nc2nccc(-n3cc(C)c(CN4CC[C@@H](O)C4)c3)n2)c1 | 2.3 | AUC(0-t) [9]: 6240 ng·h/mL; half-life [10]: 2.6 h; IC50 [2]: 349 nM; IC50 (Cytochrome P450 3A4): 5100 nM; CL/F [11]: 43 mL/min/kg; Papp [12]: 2 ×10⁻⁶ cm/s; IC50 [13]: 77 nM; Vdss (Rattus norvegicus): 4.3 L/kg; solubility kinetic [14]: 70 µM (≈ 26.4 µg/mL); bioavailability [15]: 7.6%
16 | Cc1cc(Nc2nccc(-n3cc(CN4CC(O)C4)c(C)n3)n2)cc(C)c1OCCN1CCCC1 | 8.9 | –
17 | Cc1cn(-c2ccnc(Nc3cc(C)c(OCCN4CCCC4)c(C)c3)n2)cc1CN1CC(O)C1 | 11.5 | –
18 | Cc1cc(C)cc(Nc2nccc(-n3cc(CN4CC(O)C4)c(C)n3)n2)c1 | 7.3 | –

Row | SMILES | IC50 [1] [nM] | other results
19 | Cc1cc(C)cc(Nc2nccc(-n3cc(CN4CCC(O)CC4)c(C)n3)n2)c1 | 39.1 | –
20 | COc1cc(Nc2nccc(-n3cc(C)c(CN4CC[C@@H](O)C4)c3)n2)cc(OC)c1OCC(=O)N1CCCC1 | 101 | –
21 | Cc1cc(C)cc(Nc2nccc(-n3cc(CN4CC[C@@H](O)C4)c(C)n3)n2)c1 | 3.5 | –
22 | Cc1cn(-c2ccnc(Nc3cc(C)c(OCCO)c(C)c3)n2)cc1CN1CC(O)C1 | 5 | –
23 | CCn1ccc2cc(Nc3nccc(-n4cc(CN5CC(O)C5)c(C5CC5)n4)n3)ccc21 | 9.2 | –
24 | COc1c(C)cc(Nc2nccc(-n3cc(C)c(CN4CC(O)C4)c3)n2)cc1C | 5.7 | AUC(0-t) [9]: 550 ng·h/mL; half-life [10]: 1.2 h; CL/F [11]: 70 mL/min/kg; Vdss (Rattus norvegicus): 5.6 L/kg; bioavailability [15]: 7.8%
25 | Cc1cn(-c2ccnc(Nc3cc(C)c(Oc4ccccc4)c(C)c3)n2)cc1CN1CC(O)C1 | 144 | –
26 | Cc1cn(-c2ccnc(Nc3cc(C)c(OCCO)c(C)c3)n2)cc1CN1CC[C@@H](O)C1 | 17.3 | IC50 (Cytochrome P450 3A4): > 10000 nM; Papp [12]: 10.3 ×10⁻⁶ cm/s; solubility kinetic [14]: 120 µM (≈ 52.5 µg/mL)
27 | Cc1cn(-c2ccnc(Nc3cc(C)c(OCC(=O)N4CCCC4)c(C)c3)n2)cc1CN1CC(O)C1 | 7.3 | –
28 | Cc1cc(C)cc(Nc2nccc(-n3cc(C)c(CN4CC[C@H](C(=O)O)C4)c3)n2)c1 | 17.8 | –
29 | Cc1nn(-c2nc(Nc3ccc4c(c3)c(C#N)nn4C)ncc2F)cc1CN1CC(O)C1 | 5990 | –
30 | Cc1cn(-c2ccnc(Nc3cc(C)c(Oc4ccccc4)c(C)c3)n2)cc1CN1CC[C@@H](O)C1 | 377 | –
31 | Cc1cc(C)cc(Nc2nccc(-n3cc(C)c(CN4CCC(F)(F)CC4)c3)n2)c1 | 307 | –
32 | Cc1nn(-c2ccnc(Nc3ccc4c(cnn4C4CC4)c3)n2)cc1CN1CC(O)C1 | 8 | –
33 | Cc1cc(C)cc(Nc2nccc(-n3cc(C)c(CN4CC(O)C4)c3)n2)c1 | 5.4 | –
34 | Cc1nn(-c2ccnc(Nc3ccc4c(c3)CCN4C)n2)cc1CN1CC(O)C1 | 20.4 | –
35 | COc1cc(Nc2nccc(-n3cc(C)c(CN4CC(O)C4)c3)n2)cc(OC)c1OC | 38 | –
